The target of one assay is T1, KCC3 (Homo sapiens, UniProt Q9UHW9).
T1 construct: expressed in transfected cells; host or cells: HEK-293
T1 sequence (Q9UHW9 1-1150): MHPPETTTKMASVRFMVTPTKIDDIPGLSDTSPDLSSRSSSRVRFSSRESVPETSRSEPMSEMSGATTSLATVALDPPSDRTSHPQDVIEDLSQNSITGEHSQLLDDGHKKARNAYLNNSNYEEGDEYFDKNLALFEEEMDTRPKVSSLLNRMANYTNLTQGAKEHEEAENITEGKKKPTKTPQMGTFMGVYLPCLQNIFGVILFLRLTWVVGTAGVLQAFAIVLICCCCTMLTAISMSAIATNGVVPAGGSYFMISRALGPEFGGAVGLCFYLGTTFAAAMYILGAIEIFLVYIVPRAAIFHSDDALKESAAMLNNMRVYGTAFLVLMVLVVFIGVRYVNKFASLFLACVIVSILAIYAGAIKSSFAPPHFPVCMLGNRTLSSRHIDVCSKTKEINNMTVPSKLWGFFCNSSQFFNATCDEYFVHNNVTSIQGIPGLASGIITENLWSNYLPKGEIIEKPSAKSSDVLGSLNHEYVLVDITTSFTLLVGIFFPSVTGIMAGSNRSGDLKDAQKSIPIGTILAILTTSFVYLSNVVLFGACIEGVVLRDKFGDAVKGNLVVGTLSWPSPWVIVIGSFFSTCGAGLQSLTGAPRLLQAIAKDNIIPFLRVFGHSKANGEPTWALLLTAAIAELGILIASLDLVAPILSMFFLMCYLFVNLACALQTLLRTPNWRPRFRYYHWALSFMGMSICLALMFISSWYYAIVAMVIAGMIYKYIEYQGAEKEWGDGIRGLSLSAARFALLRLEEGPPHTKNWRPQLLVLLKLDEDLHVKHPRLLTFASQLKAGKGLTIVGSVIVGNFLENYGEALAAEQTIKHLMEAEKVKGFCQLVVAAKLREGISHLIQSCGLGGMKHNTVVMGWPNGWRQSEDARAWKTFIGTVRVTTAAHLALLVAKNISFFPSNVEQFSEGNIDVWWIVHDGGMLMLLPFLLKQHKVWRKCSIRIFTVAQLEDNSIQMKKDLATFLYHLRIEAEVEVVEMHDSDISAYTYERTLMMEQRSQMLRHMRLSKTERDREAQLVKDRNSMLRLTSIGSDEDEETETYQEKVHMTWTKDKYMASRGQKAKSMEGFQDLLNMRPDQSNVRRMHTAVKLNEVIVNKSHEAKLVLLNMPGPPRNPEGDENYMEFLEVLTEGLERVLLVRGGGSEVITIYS
As to the kind of experiment: TI+ flux assay, HEK-293 cells expressing KCC3. The assay is classed as cell-based. The note with it: read-out: concentration at which effects on KCC3 were seen (EC50 chart FIG. 1G). The protocol: FLIPR TI Flux assay. HEK-293 cells were washed with HBSS, and then incubated with loading buffer containing TI sensitive fluorescent dye (https://www.moleculardevices.com), 20 μM bumetanide 20 μM ouabain and 2.5 mM probenecid for 1 h at room temperature (RT) under control conditions or with drugs in the dark using a FlexStation 3 microplate reader (Molecular Devices) and imaged […] for 30 min. Stimulus buffer was added containing 5 mM K^+/0.5 mM Tl^+ and cells were imaged every 1.5 over a 190 second time course The initial rate Tl^+ uptake (Relative Fluorescence Units (RFU) per second) was determined following addition of the stimulus buffer as outlined previously (Conway et al., 2017, supra) (Lee et al., 2022, supra).
Several studies have shown that the activity and plasma membrane accumulation of KCC2 is potentiated via phosphorylation of S940, a process mediated by the activity of protein kinase C and protein phosphatase 1 (Lee et al., 2011, supra; Lee et al., J Biol Chem 282, 29777-29784 (2007); Moore et al., Proc. Natl. Acad. Sci. U.S.A. 115, 10166-10171 (2018); Moore et al., Trends Neurosci. 40, 555-571 (2017); Silayeva et al., Proc. Natl. Acad. Sci. U.S.A. 112, 3523-3528 (2015)). […] Compared to KCC2, effects on KCC3, KCC4, and NKCC1 were only seen at concentrations more than 35-fold that of KCC2 (>100 μM) (FIG. 1G).

In assay [1] the test system is panel of 144 protein kinases. As to the kind of experiment: protein kinase panel (SelectScreen; Thermofisher). The note with it: panel incl. protein kinase C isoforms, OSR1, SPAK (STK39), WNK. The assay is classed as biochemical. The protocol:
Aliquots of HEK-293 cells expressing KCC2 were exposed to 30 μM SSA, heated from 37-55° C. The remaining level of soluble native KCC2 at each temperature was measured by immunoblotting and normalized to the level seen at 37° C. which was given a value of 1. […] This panel included protein kinase C isoforms, OSR1, SPAK (STK39) and with-no-lysine kinases (WNK), all of which phosphorylate KCC2 on multiple residues to indirectly modify its activity (Kahle et al., 2013, supra; Smalley et al., 2020, supra).

Assay [2] deals with neuronal cell death in the hippocampus. As to the kind of experiment: neuronal cell death in the hippocampus of mice treated with Compound A and diazepam. The assay is classed as in vivo. The note with it: Compound A and diazepam vs diazepam alone.
The next assay concerns hippocampal neurons. Nature of the assay: whole cell patch-clamp recording of EGABA with imposed Cl− load in hippocampal neurons. The assay is classed as cell-based, Sprague Dawley. The note with it: incubated 1 h, 32 mM Cl− load, 5 min after break-in, controls −47.4±2.3. The protocol:
Neuronal Cultures. Hippocampal neurons were prepared from Sprague Dawley E18 embryos and plated at 450,000 per dish and maintained at 37° C. in a humidified 5% CO2 incubator for 10-25 days before experimentation (Lee et al., Nat. Neurosci. 14, 736-743 (2011)).
Neuronal Patch clamp assays. Neuronal cell culture recordings were performed in bath saline at 34° C. For gramicidin perforated-patch experiments, pipettes contained (in mM): 140 KCl and 10 HEPES, pH 7.4 KOH. For whole-cell experiments, pipettes contained (in mM): 115 K-meth-SO4, 30 KCl, 2 Mg-ATP, 4 Na-ATP, 0.4 Na-GTP, and 10 HEPES, pH 7.4 KOH. Bath saline contained the following (in mM): 140 NaCl, 2.5 KCl, 2.5 CaCl2, 2.5 MgCl2, 10 HEPES, and 11 glucose, pH 7.4 NaOH (Kontou et al., 2021, supra). All compound solutions were applied to cells using a three-barreled 700 μm pipe positioned just above the cell (Warner Instruments). […] All voltages from whole-cell experiments were corrected offline using a calculated liquid junction potential value (13.6 mV) in Clampex (Molecular Devices). For gramicidin perforated-patch experiments, intracellular Cl^− values were back-calculated using measured EGABA values and the Nernst equation: […]
5 min after break-in, an initial EGABA value was determined and the effects of a subsequent 5 min incubation with VU0463271 was assessed.

Take `C[C@@H]1CN(c2nc3c(c(Nc4ccc(C5CCCCC5)cc4)n2)COC3)CCO1` [Compound A, (R)—N-(4-cyclohexylphenyl)-2-(2-methylmorpholino)-5,7-dihydrofuro[3,4-d]pyrimidin-4-amine]: the EC50 at KCC3 was > 100 µM. In addition, the “activity of a panel of 144 protein kinases” value in assay [1] was “did not modify the activity”. Besides, the “neuronal cell death in the hippocampus” value in assay [2] is recorded as “significantly reduced”. Moreover, the basal EGABA with hippocampal neurons is -59.3 ± 2.1 mV.

The values above are taken from patent US20250281498A1, “FUSED AMINO PYRIMIDINE COMPOUNDS FOR TREATMENT OF SYNUCLEINOPATHIES AND TDP-43 PROTEINOPATHIES” (Ovid Therapeutics Inc., priority 2024, published 2025).
